Results reported in PubChem BioAssay (NCI).
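Following 48 hours of exposure in 96-well plates, responses at five concentrations were used to interpolate endpoints linearly. Definition used: TGI = concentration required for complete inhibition of growth.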

Tests used:
Assay in all cases: NCI-60 cell line screen, 48 h
MDA-MB-435 = system: MDA-MB-435
MDA-N = system: MDA-N
DLD-1 colon = system: DLD-1 colon
LXFL 529 NSCLC = system: LXFL 529 NSCLC
XF 498 CNS = system: XF 498 CNS
RXF-631 renal = system: RXF-631 renal
M19-MEL melanoma = system: M19-MEL melanoma
HOP-18 NSCLC = system: HOP-18 NSCLC
KM20L2 colon = system: KM20L2 colon

Row | Compound | TGI (MDA-MB-435) [µM] | TGI (MDA-N) [µM] | TGI (DLD-1 colon) [µM] | TGI (LXFL 529 NSCLC) [µM] | TGI (XF 498 CNS) [µM] | TGI (RXF-631 renal) [µM] | TGI (M19-MEL melanoma) [µM] | TGI (HOP-18 NSCLC) [µM] | TGI (KM20L2 colon) [µM]
1 | Cc1cccc2c(NCCN(C)C)c3cccc(C(=O)NCCN(C)C)c3nc12 | 1.1 | 0.9 |  |  |  |  |  |  | 
2 | C[C@]12CCc3nonc3C1CC[C@@H]1C2CC[C@@]2(C)C1CC[C@@H]2O (some centres undefined) |  |  | > 100 | > 100 | > 100 | > 100 | > 100 | > 100 | > 100
3 | COC(=O)[C@@H]1C[C@]2(Br)c3ccccc3N(S(=O)(=O)c3ccccc3)[C@@H]2N1C(=O)OC | > 100 | > 100 |  |  |  |  |  |  | 
4 | Cc1oc2nc(N(C)C)nc(NN)c2c1C | > 100 |  |  |  |  |  |  |  | 
5 | C#CC(C)(C)OCCCCOc1cc(O)c2c(=O)c3ccccc3n(C)c2c1 |  |  | > 100 | > 100 | > 100 |  | > 100 | > 100 | > 100
6 | Cc1nn(C(=O)Cc2ccccc2)c2c1C(c1ccc([N+](=O)[O-])cc1)SC(N)=N2 (centres undefined) | > 100 | > 100 |  |  |  |  |  |  | 
7 | CC1SC2=NC3=C(c4ccccc4C3=O)C(c3ccccc3Cl)N2C1=O (centres undefined) |  |  | > 100 | > 100 | > 100 | > 100 | > 100 |  | > 100
8 | CN(/N=C/c1ccc(Cl)c(Cl)c1)C1=NCCCCN1 | 36 | 42.2 |  |  |  |  |  |  | 
9 | CS(=O)(=O)NNS(=O)(=O)c1ccc(F)cc1 |  |  | > 100 | > 100 |  | > 100 | > 100 |  | > 100
10 | CCCCc1nc(C)oc1C(C)C | > 100 | > 100 |  |  |  |  |  |  | 
11 | C1=CCC[C@@H]2CN3CCCC/C=C\CCCC[C@H]4C[C@H](CN(CCCCCCCC1)C4)[C@H]2CC3 | 15.7 | 16.2 |  |  |  |  |  |  | 
12 | Cc1nc(-n2nc(-c3ccccc3)cc2-c2ccccc2)sc1C(=O)/C=C/c1ccc([N+](=O)[O-])cc1 | 43.5 | 59.8 | 36.2 |  |  | > 100 | 98.9 | > 100 | > 100
13 | COc1ccc(NC(=O)C(C#N)=C(SC)SC)cc1 | > 100 | > 100 |  |  |  |  |  |  | 
14 | CC(C)=NOC(=O)OC[C@H]1O[C@@H](n2cnc3c(N)ncnc32)C(O)C1O (some centres undefined) | > 100 | > 100 |  |  |  |  |  |  | 
15 | Cn1ccc(=NS(=O)(=O)c2ccccc2)cc1 |  |  | > 100 | > 100 | > 100 | > 100 | > 100 | > 100 | > 100
16 | Oc1ccc(C2Oc3cc(O)cc4c3C2c2cc(O)cc3c2C(c2cc(O)cc5c2C4C(c2ccc(O)cc2)O5)C(c2ccc(O)cc2)O3)cc1 (centres undefined) |  |  | > 25 | > 25 | 24.5 |  | > 25 |  | > 25
17 | CCOC(=O)[C@@]1(C(C)=O)CC(C)=C(C)C[S@]1=O | > 100 | > 100 |  |  |  |  |  |  | 
18 | COC(=O)/C(=N\NC(N)=O)C(C#N)c1ccccc1 (centres undefined) |  |  | > 100 | > 100 | > 100 |  | > 100 | > 100 | > 100

Row | Compound | TGI (MDA-MB-435) [µM] | TGI (MDA-N) [µM] | TGI (DLD-1 colon) [µM] | TGI (LXFL 529 NSCLC) [µM] | TGI (XF 498 CNS) [µM] | TGI (RXF-631 renal) [µM] | TGI (M19-MEL melanoma) [µM] | TGI (HOP-18 NSCLC) [µM] | TGI (KM20L2 colon) [µM]
19 | COc1ccc([Se][Se]c2ccc(OC)cc2OC)c(OC)c1 |  |  | 8.72 | 4.64 | 3.84 | 59.2 | 4.68 | 4.72 | 
20 | CN/N=C(\C)C(CN1CCCCC1)C(C1=C(O)c2ccccc2OC1)c1ccccc1 (centres undefined) |  |  |  | > 100 | > 100 | > 100 | > 100 |  | > 100
21 | CNC(=O)N1CN(c2ccccc2)C2(CCN(Cc3ccccc3)CC2)C1=O |  | > 100 |  |  |  |  |  |  | 
22 | COC(=O)c1sc2c(=O)c(C(=O)OC)c(C(=O)OC)sc2c(=O)c1C(=O)OC | > 100 | > 100 |  |  |  |  |  |  | 
23 | COc1ccc2nc3cc([N+](=O)[O-])ccc3c(Nc3ccc(S(=O)(=O)Nc4ncccn4)cc3)c2c1 | > 100 | > 100 |  |  |  |  |  |  | 
24 | C[N+](C)(C)C1CC([N+](C)(C)C)C2c3ccccc3C21 (centres undefined) |  |  | > 100 | > 100 | > 100 | > 100 | > 100 |  | > 100
25 | O=C(O)c1ccccc1/C=C1/Cc2ccc3c(c2C1=O)CCC3 | 74.9 | > 100 |  |  |  |  |  |  | 
26 | O=S1(=O)c2cc(S(=O)(=O)n3ccnc3)ccc2NC2=NCCCN21 |  |  | > 100 | > 100 |  |  | > 100 | > 100 | 41.7
27 | O=C1CCCCCCCCCCC1CN1CCOCC1 (centres undefined) | > 100 | > 100 |  |  |  |  |  |  | 
28 | N#Cc1sc2c(c1OC(=O)c1ccc(Cl)cc1Cl)c(=O)n(-c1ccccc1)c(=S)n2-c1ccccc1 | 46.2 |  |  |  |  |  |  |  | 
29 | N#Cc1ccccc1NC(=O)C(=O)C(C(=O)c1ccncc1)C1OC(=O)c2ccccc21 (centres undefined) |  |  | > 100 | > 100 | > 100 | > 100 | > 100 | > 100 | > 100
30 | CCc1cccc(C(C)CC)c1NC(=O)C(=O)Cc1nc2ccccc2o1 (centres undefined) |  |  | > 50 | > 50 | > 50 |  | > 50 |  | > 50
31 | Nc1ccn(CCOC(c2ccccc2)P(=O)(O)O)c(=O)n1 (centres undefined) |  |  | > 100 | > 100 | > 100 |  | > 100 |  | > 100
32 | C=CCCCN1CCCCC1=S |  |  | > 100 |  | > 100 | > 100 | > 100 | > 100 | > 100
33 | COc1cccc(C=O)c1[O-].COc1cccc(C=O)c1[O-].[Zn+2] |  |  | > 100 | > 100 |  |  | 98.6 | > 100 | > 100
34 | CC(C)(C)OC(=O)N1CC(C)(C)N2C(=O)C3(CCCO3)C12 (centres undefined) |  |  | > 100 | > 100 |  |  | > 100 | > 100 | > 100
35 | O=C1NC(=S)NC(=O)C1=CC1CC1 |  |  | > 100 | > 100 | > 100 |  | > 100 | > 100 | > 100
